Measured values from patent publication US8557816B2, “Aurora kinase modulators and method of use” (Amgen Inc., priority 2007, dated 2013).

Columns and labels:
[1] = target: T1, AuroraA-TPX2 (Homo sapiens, UniProt O14965); assay: AuroraA-TPX2 Homogeneous Time Resolved Fluorescent (HTRF) kinase assay; format: biochemical; settings: average; read-out: AurA_IC50_IP (uM Avg)
T1 construct: 20 μL of AuroraA-TPX2 KD GST for a final volume of about 41 μL; GST
T1 sequence (O14965 133-383 limits assumed): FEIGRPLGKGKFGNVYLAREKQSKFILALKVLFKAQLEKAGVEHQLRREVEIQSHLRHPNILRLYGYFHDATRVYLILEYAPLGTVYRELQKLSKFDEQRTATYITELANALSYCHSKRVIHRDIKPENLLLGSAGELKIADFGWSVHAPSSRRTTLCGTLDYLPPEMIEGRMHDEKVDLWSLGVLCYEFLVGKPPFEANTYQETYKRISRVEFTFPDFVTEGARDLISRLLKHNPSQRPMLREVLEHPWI
T1 sequence (Q9ULW0 1-43 partner limits assumed): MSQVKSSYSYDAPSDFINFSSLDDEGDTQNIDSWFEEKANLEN
How it was run: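 HTRF read-out (Eu 615 nm to APC 655 nm) of phosphorylated biotin-PLK, detected with 0.02 nM europium anti-phosphoPLK antibody and 0.0005 mg/mL SA-APC after overnight equilibration.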

[2] = target: T2, AuroraB (Homo sapiens, UniProt Q96GD4); assay: AuroraB Homogeneous Time Resolved Fluorescent (HTRF) kinase assay; format: biochemical; settings: average; read-out: AurB_IC50_IP (uM Avg)
T2 construct: 20 μL of AuroraB FL H is for a final volume of 41 μL; His
How it was run: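 Read-out is time-resolved FRET between europium anti-phospho-H3 antibody and streptavidin-APC, added in EDTA buffer to stop the reaction and equilibrated about 60 min (ex 320, em 615 and 655 nm). Preceding reaction: ~90 min, full-length enzyme, ATP, 0.1 μM biotin-Histone H3 substrate, Mg/Mn HEPES buffer pH 7.5.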

T2 sequence (Q96GD4 whole entry): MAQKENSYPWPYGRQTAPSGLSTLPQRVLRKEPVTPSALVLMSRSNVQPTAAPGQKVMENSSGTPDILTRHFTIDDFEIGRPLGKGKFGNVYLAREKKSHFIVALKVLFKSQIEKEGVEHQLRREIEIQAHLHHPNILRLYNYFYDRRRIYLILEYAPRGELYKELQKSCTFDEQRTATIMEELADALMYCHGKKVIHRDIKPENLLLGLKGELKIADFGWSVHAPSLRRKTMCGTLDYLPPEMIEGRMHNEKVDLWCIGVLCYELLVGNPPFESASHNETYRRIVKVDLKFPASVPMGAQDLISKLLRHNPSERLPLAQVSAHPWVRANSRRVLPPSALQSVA

Compound | IC50 [1] | IC50 [2]
c1ccc2c(Sc3ccc(Nc4nnc(-c5ccc6c(c5)OCO6)c5ccccc45)cc3)ccnc2c1 [compound 517] | 0.15 µM | 0.017 µM
Clc1cccc(-c2nnc(Nc3ccc(Sc4ccnc5ccsc45)cc3)c3ccccc23)c1 [compound 518] | 0.218 µM | 0.01 µM
COc1cnc2c(Sc3ccc(Nc4nnc(-c5ccccc5)c5ccccc45)cc3F)ccnc2c1 [compound 519] | 0.083 µM | 0.053 µM
COc1cnc2c(Sc3ccc(Nc4nnc(-c5ccc6c(c5)OCO6)c5ccccc45)cc3F)ccnc2c1 [compound 522] | 0.009 µM | 0.022 µM
COc1cnc2c(Sc3ccc(Nc4nnc(N5CCC(C(F)(F)F)CC5)c5ccccc45)cc3)ccnc2c1 [compound 523] | 0.036 µM | 0.144 µM
COc1cnc2c(Oc3ccc(Nc4nnc(-c5ccc(C)c(OC)c5)c5ccccc45)cc3)ccnc2c1 [compound 525] | 0.013 µM | 0.028 µM
COc1cnc2c(Sc3ccc(Nc4nnc(-c5cc(C)cs5)c5ccccc45)cc3F)ccnc2c1 [compound 528] | 0.064 µM | 0.293 µM
COc1cnc2c(Sc3ccc(Nc4nnc(-c5ccc6c(c5)OCO6)c5ccccc45)cc3)ccnc2c1 [compound 530] | 0.014 µM | 0.014 µM
COC1CCN(c2nnc(Nc3ccc(Sc4ccnc5cc(C#N)ccc45)cc3)c3ccccc23)CC1 [compound 534] | 0.035 µM | 0.02 µM
COc1cnc2c(Sc3ccc(Nc4nnc(N5CCC(N6CCCC6)CC5)c5ccccc45)cc3)ccnc2c1 [compound 538] | 3.43 µM | 0.045 µM
COc1cnc2c(Oc3ccc(Nc4nnc(-c5cc(F)cc(F)c5)c5ccccc45)cc3)ccnc2c1 [compound 539] | 0.133 µM | 0.02 µM

The remaining lines, values ahead:

IC50 [1] | IC50 [2] | Compound
0.501 µM | 0.12 µM | CCOc1nnc(Nc2ccc(Sc3ccnc4cc(OC)cnc34)cc2)c2ccccc12 [compound 512]
0.231 µM | 0.03 µM | COc1cnc2c(Sc3ccc(Nc4nnc(OCC(F)(F)F)c5ccccc45)cc3)ccnc2c1 [compound 513]
0.189 µM | 0.01 µM | COc1cnc2c(Sc3ccc(Nc4nnc(SC)c5ccccc45)cc3)ccnc2c1 [compound 514]
0.072 µM | 0.012 µM | COCCOc1nnc(Nc2ccc(Sc3ccnc4cc(OC)cnc34)cc2)c2ccccc12 [compound 515]
0.088 µM | 0.068 µM | COc1cnc2c(Sc3ccc(Nc4nnc(-c5cccc(Cl)c5)c5ccccc45)cc3)ccnc2c1 [compound 516]
0.112 µM | 0.025 µM | COc1cnc2c(Sc3ccc(Nc4nnc(N5CCCC5)c5ccccc45)cc3)ccnc2c1 [compound 521]
0.093 µM | 0.099 µM | CCCN(C)c1nnc(Nc2ccc(Sc3ccnc4cc(OC)cnc34)cc2)c2ccccc12 [compound 524]
0.036 µM | 0.138 µM | COc1cnc2c(Sc3ccc(Nc4nnc(N5CCC(Cl)CC5)c5ccccc45)cc3)ccnc2c1 [compound 527]
0.02 µM | 0.037 µM | COc1cnc2c(Sc3ccc(Nc4nnc(-c5ccc(C)c(OC)c5)c5ccccc45)cc3)ccnc2c1 [compound 529]
0.089 µM | 0.024 µM | COc1cnc2c(Sc3ccc(Nc4nnc(N5CCC(F)(F)CC5)c5ccccc45)cc3)ccnc2c1 [compound 531]
0.061 µM | 0.019 µM | COc1cnc2c(Sc3ccc(Nc4nnc(N5CCC[C@@H](OC)C5)c5ccccc45)cc3)ccnc2c1 [compound 532]
0.045 µM | 0.03 µM | COCCNc1nnc(Nc2ccc(Sc3ccnc4cc(OC)cnc34)cc2)c2ccccc12 [compound 533]
0.022 µM | 0.02 µM | COCCCNc1nnc(Nc2ccc(Sc3ccnc4cc(OC)cnc34)cc2)c2ccccc12 [compound 535]
0.812 µM | 0.031 µM | COc1cnc2c(Sc3ccc(Nc4nnc(Cl)c5ccccc45)cc3)ccnc2c1 [compound 536]
0.198 µM | 0.111 µM | COc1cnc2c(Sc3ccc(Nc4nnc(NCCc5ccccn5)c5ccccc45)cc3)ccnc2c1 [compound 537]
